Results: patent publication US20260103474A1, “NOVEL COMPOUNDS FOR THE DIAGNOSIS OF TDP-43 PROTEINOPATHIES” (AC IMMUNE SA, priority 2022, published 2026)

How the values were obtained:
[1] = target: T1, PD brain-derived a-synuclein aggregates (Homo sapiens, UniProt P37840); assay: Micro-radiobinding competition assay against a-syn reference on PD brain-derived insoluble fraction; assay type: binding; conditions: against [3H]-reference a-syn compound
T1 construct: from tissue; host or cells: frozen brain tissue of PD donors, 1% sarkosyl-insoluble pellet
Method: (§1) The procedure was adapted from the protocol described in Spillantini et al., 1998. Frozen tissue blocks from PD donors were thawed on ice and homogenized using a glass dounce homogenizer. The homogenate was then centrifuged at 11,000×g (12,700 RPM) in an ultracentrifuge (Beckman, XL100K) for 20 minutes at 4° C. using a pre-cooled 70.1 rotor (Beckman, 342184). Pellets were resuspended in extraction buffer [10 mM Tris-HCl pH 7.4, 10% sucrose, […], 1% protease inhibitor (Calbiochem 539131), 1 mM EGTA, 1% phosphatase inhibitor (Sigma P5726 and P0044)] and centrifuged at 15,000×g (14,800 RPM, a 70.1 Ti rotor) for 20 minutes at 4° C. […]
(§2) PD brain-derived a-synuclein aggregates and AD brain-derived Tau PHF aggregates were spotted onto microarray slides. […] Quantification of signal was performed by using the image analysis software Beamage (ai4R). Non-specific signal was determined with an excess of non-radiolabelled compound (2 μM) and specific binding was calculated by subtracting the non-specific signal from the total signal. Competition was calculated as percentage, where 0% was defined as the specific binding in the presence of vehicle and 100% as the values obtained in the presence of excess of the non-radiolabelled a-syn reference compound. Ki values were calculated in GraphPad Prism7 by applying a nonlinear regression curve fit using a one site, specific binding model. […]

[2] = test system: AD brain-derived Tau PHF aggregates; assay: Micro-radiobinding direct binding on AD brain-derived Tau PHF; design: species or system human; conditions: tritiated compound 0.6 to 200 nM
Method: The enrichment procedure was modified from Jicha et al, 1997 and Rostagno and Ghiso, 2009. Briefly, around 15 g of the AD human brain were thawed on ice and homogenized with homogenization buffer (3 ml per gram of tissue) (0.75 M NaCl in RAB buffer (100 mM 2-(N-morpholino)ethanesulfonic acid (MES), 1 mM EGTA, 0.5 mM MgSO4, 2 mM DTT, pH 6.8) supplemented with protease inhibitors (Complete; Roche 693124001)) in a glass Dounce homogenizer. […]
as §2

[3] = target: T1, PD brain-derived a-synuclein aggregates; assay: Micro-radiobinding direct binding on PD brain-derived a-synuclein aggregates; conditions: tritiated compound 0.6 to 200 nM
Method: as §1, §2

## O=C1c2sc(-c3ccc(N4CC[C@@H](F)C4)nc3F)nc2CCN1c1cccnc1 [Compound 1, 2-[2-fluoro-6-[(3R)-3-fluoropyrrolidin-1-yl]-3-pyridyl]-5-(3-pyridyl)-6,7-dihydrothiazolo[5,4-c]pyridin-4-one]
[1]
  Ki: > 0.5 µM

## [3H]c1cncc(N2CCc3nc(-c4cc([3H])c(N5CC[C@@H](F)C5)nc4F)sc3C2=O)c1 [[^3H]-Compound 1, tritiated 2-[2-fluoro-6-[(3R)-3-fluoropyrrolidin-1-yl]-3-pyridyl]-5-(3-pyridyl)-6,7-dihydrothiazolo[5,4-c]pyridin-4-one]
[2]
  Direct binding in AD brain-derived Tau PHF aggregates: No significant binding
[3]
  Direct binding in PD brain-derived a-synuclein aggregates: No significant binding

## [3H]C([3H])(O)C1CCN(c2ccc(-c3nc4c(s3)C(=O)N(c3cccnc3)CC4)c(F)n2)CC1 [[^3H]-Compound 17, 2-(2-fluoro-6-(4-(hydroxymethyl-t2)piperidin-1-yl)pyridin-3-yl)-5-(pyridin-3-yl)-6,7-dihydrothiazolo[5,4-c]pyridin-4(5H)-one]
[2]
  Direct binding in AD brain-derived Tau PHF aggregates: No significant binding
[3]
  Direct binding in PD brain-derived a-synuclein aggregates: No significant binding
